Test system: STAT1
Experiment: IFN-γ-induced STAT1 tyrosine phosphorylation in ME180 cells (immunoblot)
Assay type: cell-based, human
Conditions: serum-starved ME180 cells; 100 μg/ml Pirfenidone for 1 h, then 10 ng/ml IFN-γ for 0-60 min; anti-phospho STAT1 immunoblot
Experimental: ME180 cells were grown in DMEM supplemented with 10% heat inactivated fetal calf serum, 2 mM L-glutamine, streptomycin (100 μg/ml) and penicillin (100 units/ml). Briefly, cells were seeded at a density of 5×10^6 cells in 100 mm tissue culture dishes. After 24 hrs, cells were washed with phosphate-buffered saline (PBS) and incubated in serum free growth media for 16 hours, then treated with medium or with 100 μg/ml of Pirfenidone for 1 h before treating them with Actimune (10 ng/ml) for 0-10-20-40 and 60 min. At the end of incubation period, cells were lysed by incubation in 50 mM HEPES (pH 7.0) containing 100 mM NaCl, 1.2% Triton X-100, 10% glycerol, 1.5 mM MgCl2, 100 mM NaF, 10 mM sodium pyrophosphate, 1 mM sodium orthovanadate, 1 mM EGTA (ethylene glycol-bis-β-aminoethylether-tetraacetic acid), 1 mM DTT (dithiothreitol), 1 mM phenylmethylsulfonylfloride (PMSF), 0.15 unit/ml aprotinin, 10 μg/ml leupeptin, 10 μg/ml pepstatin. Lysates were clarified by centrifugation (12.000×g for 1 min.). Equal amounts (100 μg) total proteins were subjected to SDS-PAGE on 10% polyacrylamide gels to separate the proteins. The proteins were then electrophoretically transferred from the polyacrylamide gel onto a nitrocellulose sheet for overnight at 20 mAmp, and analyzed by immunoblotting with anti-phospho STAT1-specific antibody (antibody specific for phosphorylated STAT1). […]

Structure (SMILES): Cc1ccc(=O)n(-c2ccccc2)c1 [pirfenidone, 5-methyl-1-phenyl-2-(1H)-pyridone]
- Effect on IFN-γ-induced STAT1 tyrosine phosphorylation: does not affect

Source: US7407973B2, “Use of pirfenidone in therapeutic regimens” (Intermune, Inc., priority 2003, dated 2008)
